Source: ChEMBL document CHEMBL4346703, “Structure Overhaul Affords a Potent Purine PI3Kδ Inhibitor with Improved Tolerability” (J Med Chem, 2019)

Experiments:
[1] = molecular target: PI3-kinase p110-alpha/p85-alpha (Homo sapiens, UniProt P42336); assay: Inhibition of N-terminal His6-tagged recombinant full length human p110alpha/untagged recombinant full length human p85alpha expressed in baculovirus infected Sf21 insect cells using PIP2 as substrate preincubated for 15 mins followed by substrate addition and measured after 1 hr by HTRF assay
Chain of PI3-kinase p110-alpha/p85-alpha (P27986 whole entry): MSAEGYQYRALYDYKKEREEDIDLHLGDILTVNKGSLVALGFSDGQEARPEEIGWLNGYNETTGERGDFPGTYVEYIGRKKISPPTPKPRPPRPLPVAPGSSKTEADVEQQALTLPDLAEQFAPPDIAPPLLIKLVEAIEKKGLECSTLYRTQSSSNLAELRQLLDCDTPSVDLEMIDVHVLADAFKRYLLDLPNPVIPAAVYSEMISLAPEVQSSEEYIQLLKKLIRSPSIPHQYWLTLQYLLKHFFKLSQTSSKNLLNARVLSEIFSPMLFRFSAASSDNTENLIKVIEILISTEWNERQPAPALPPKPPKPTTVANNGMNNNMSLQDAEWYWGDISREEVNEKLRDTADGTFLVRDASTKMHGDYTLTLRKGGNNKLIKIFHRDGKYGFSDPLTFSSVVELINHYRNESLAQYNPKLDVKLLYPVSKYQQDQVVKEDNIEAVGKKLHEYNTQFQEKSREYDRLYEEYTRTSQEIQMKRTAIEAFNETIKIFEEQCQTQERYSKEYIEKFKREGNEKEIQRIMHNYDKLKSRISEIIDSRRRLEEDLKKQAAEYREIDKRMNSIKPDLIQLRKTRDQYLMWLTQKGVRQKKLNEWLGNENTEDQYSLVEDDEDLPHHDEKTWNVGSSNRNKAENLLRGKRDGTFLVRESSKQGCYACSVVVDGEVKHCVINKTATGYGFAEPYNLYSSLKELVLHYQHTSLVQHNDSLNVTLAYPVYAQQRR
Chain of PI3-kinase p110-alpha/p85-alpha (P42336 whole entry): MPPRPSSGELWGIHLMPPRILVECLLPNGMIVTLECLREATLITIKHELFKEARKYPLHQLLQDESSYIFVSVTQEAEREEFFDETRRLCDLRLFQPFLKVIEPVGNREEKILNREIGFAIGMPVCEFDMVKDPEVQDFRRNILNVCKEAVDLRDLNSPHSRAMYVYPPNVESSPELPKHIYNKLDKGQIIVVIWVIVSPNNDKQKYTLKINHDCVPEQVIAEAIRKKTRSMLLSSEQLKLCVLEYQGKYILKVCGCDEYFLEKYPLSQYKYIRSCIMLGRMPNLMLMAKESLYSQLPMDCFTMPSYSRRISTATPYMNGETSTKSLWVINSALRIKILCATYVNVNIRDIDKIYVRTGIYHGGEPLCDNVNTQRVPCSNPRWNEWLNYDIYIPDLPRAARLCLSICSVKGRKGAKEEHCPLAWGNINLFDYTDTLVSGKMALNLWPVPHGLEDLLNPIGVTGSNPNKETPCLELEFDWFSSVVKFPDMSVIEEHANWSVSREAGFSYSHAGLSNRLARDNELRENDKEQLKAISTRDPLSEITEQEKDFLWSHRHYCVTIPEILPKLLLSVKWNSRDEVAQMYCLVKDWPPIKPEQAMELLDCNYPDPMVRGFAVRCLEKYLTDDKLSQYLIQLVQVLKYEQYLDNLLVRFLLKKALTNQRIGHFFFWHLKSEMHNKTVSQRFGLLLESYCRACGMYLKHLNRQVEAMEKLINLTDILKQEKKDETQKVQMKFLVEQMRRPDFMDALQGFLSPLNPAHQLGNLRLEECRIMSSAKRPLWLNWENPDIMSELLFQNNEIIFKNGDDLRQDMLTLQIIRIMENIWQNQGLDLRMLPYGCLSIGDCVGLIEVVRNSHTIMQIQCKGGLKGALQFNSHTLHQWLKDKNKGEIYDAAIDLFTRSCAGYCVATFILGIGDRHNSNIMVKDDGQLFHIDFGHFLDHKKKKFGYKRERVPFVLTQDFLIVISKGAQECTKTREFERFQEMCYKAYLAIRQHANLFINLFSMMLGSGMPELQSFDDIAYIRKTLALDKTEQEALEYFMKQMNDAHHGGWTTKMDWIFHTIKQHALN

[2] = Inhibition of adenosine transporter in human HeLa cells assessed as reduction in [3H]adenosine uptake preincubated for 30 mins followed by [3H]adenosine addition and measured after 60 mins; type: ADME, cell-based
[3] = molecular target: PI3-kinase p110-delta/p85-alpha (Homo sapiens, UniProt O00329); assay: Inhibition of N-terminal His6-tagged recombinant full length human p110delta/untagged recombinant full length human p85alpha expressed in baculovirus infected Sf21 insect cells using PIP2 as substrate preincubated for 15 mins followed by substrate addition and measured after 1 hr by HTRF assay
Chain of PI3-kinase p110-delta/p85-alpha (P27986 whole entry, one chain of several, canonical isoform): as the sequence (P27986 whole entry) above

[4] = molecular target: T1, Phosphatidylinositol 4,5-bisphosphate 3-kinase catalytic subunit delta isoform (Homo sapiens, UniProt O00329); assay: Inhibition of PI3Kdelta in human Ramos cells assessed as reduction in anti-IgM-antibody-induced phosphorylation of AKT at Ser473 residue preincubated for 20 mins followed by anti-IgM antibody stimulation and measured after 30 mins by alphascreen assay; type: cell-based
T1 sequence (O00329 whole entry): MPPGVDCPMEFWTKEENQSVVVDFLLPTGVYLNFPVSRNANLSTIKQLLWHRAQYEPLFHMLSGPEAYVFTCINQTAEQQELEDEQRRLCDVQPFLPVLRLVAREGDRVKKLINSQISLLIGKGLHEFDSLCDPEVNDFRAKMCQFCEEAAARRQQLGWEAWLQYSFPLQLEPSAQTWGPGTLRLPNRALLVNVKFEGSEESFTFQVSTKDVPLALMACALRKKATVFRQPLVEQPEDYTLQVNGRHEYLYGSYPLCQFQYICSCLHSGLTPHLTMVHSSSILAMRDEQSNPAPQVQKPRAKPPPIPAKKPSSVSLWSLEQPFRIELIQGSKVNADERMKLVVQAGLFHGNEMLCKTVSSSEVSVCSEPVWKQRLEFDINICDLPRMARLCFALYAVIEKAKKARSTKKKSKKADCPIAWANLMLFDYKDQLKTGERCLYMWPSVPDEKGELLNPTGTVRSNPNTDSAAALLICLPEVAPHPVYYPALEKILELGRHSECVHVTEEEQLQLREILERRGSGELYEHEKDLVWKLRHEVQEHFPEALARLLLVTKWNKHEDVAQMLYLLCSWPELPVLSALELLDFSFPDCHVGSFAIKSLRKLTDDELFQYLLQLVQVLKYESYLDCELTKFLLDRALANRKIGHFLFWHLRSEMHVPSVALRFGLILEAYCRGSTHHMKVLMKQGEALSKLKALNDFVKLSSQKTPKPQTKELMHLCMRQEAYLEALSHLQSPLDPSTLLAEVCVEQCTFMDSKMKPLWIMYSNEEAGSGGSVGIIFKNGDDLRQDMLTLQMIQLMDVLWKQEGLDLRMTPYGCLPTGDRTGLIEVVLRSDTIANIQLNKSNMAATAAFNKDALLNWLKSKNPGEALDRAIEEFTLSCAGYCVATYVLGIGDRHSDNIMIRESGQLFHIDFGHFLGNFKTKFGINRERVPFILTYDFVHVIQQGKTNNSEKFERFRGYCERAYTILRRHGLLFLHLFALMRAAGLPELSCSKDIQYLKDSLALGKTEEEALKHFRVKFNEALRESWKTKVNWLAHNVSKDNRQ

[5] = species on record: Homo sapiens; assay: Selectivity ratio of IC50 for N-terminal His6-tagged recombinant full length human p110alpha/untagged recombinant full length human p85alpha expressed in baculovirus infected Sf21 insect cells to IC50 for N-terminal His6-tagged recombinant full length human p110delta/untagged recombinant full length human p85alpha expressed in baculovirus infected Sf21 insect cells
[6] = Volume of distribution in Wistar Han rat; type: ADME; settings: in vivo
[7] = molecular target: T1, Phosphatidylinositol 4,5-bisphosphate 3-kinase catalytic subunit delta isoform; assay: Inhibition of PI3Kdelta in human whole blood assessed as reduction in antihuman IgE antibody-stimulated CD63 expression preincubated for 30 mins followed by antihuman IgE antibody stimulation and measured after 20 mins by FACS analysis; type: tissue-based
[8] = Protein binding in human plasma; type: ADME, cell-free; settings: read-out: PPB (converted)
[9] = Half-life in Wistar Han rat; type: ADME; settings: in vivo
[10] = Plasma clearance in Wistar Han rat at 0.05 mg/kg; type: ADME, organism-based
[11] = Lipophilicity, log D of the compound; type: physicochemical; settings: octanol/water
[12] = Protein binding in Wistar Han rat plasma; type: ADME, cell-free; settings: read-out: PPB (converted)
[13] = Unbound volume of distribution in Wistar Han rat; type: ADME; settings: in vivo
[14] = Intrinsic clearance in Wistar Han rat at 0.05 mg/kg; type: ADME, organism-based; settings: in vivo
[15] = molecular target: T1, Phosphatidylinositol 4,5-bisphosphate 3-kinase catalytic subunit delta isoform; assay: Inhibition of PI3Kdelta in human whole blood assessed as reduction in anti-CD79b antibody-induced CD69 expression preincubated for 60 mins followed by anti-CD79b antibody stimulation and measured after 3 hrs by FACS analysis; type: tissue-based

Row | SMILES | IC50 [1] | IC50 [2] | IC50 [3] | IC50 [4] | further results
1 | CCn1ncc(-c2nc3c(S[C@H]4CCN(C(=O)C5CCOCC5)C4)ncnc3n2C)c1C | 597 nM | 1400 nM | 15 nM | 572 nM | –
2 | CCn1ncc(-c2nc3c(NC4CCN(CC(C)C)C4=O)ncnc3n2C)c1C (racemic) | 1780 nM | 7150 nM | 1350 nM | 8330 nM | –
3 | CCCN1CC[C@H](Nc2ncnc3c2nc(-c2cnn(CC)c2C)n3C)C1 | 1310 nM | 2560 nM | – | 1290 nM | –
4 | CCC(=O)N1CCC(Nc2ncnc3c2nc(-c2cnn(CC)c2C)n3C)CC1 | 1190 nM | > 10000 nM | 800 nM | – | –
5 | CCn1ncc(-c2nc3c(NC4CN(C(=O)C5CCOCC5)C4)ncnc3n2C)c1C | 453 nM | > 10000 nM | – | 2770 nM | Ratio IC50 [5]: 28
6 | CC[C@H](Nc1ncnc2c1nc(-c1cnn(CC)c1C)n2C)C(=O)N(C)C | 1070 nM | > 10000 nM | 34 nM | 1470 nM | –
7 | CCn1ncc(-c2nc3c(N[C@H](C)C(=O)N4CCOCC4)ncnc3n2C)c1C | > 10000 nM | > 10000 nM | 1080 nM | – | –

The next compounds have a lower IC50 [1] than those just listed; values first:

Row | IC50 [1] | IC50 [2] | IC50 [3] | IC50 [4] | SMILES | further results
8 | 121 nM | 2250 nM | 4.3 nM | 45 nM | CCn1ncc(-c2nc3c(NC4CC(=O)N(CC(C)C)C4)ncnc3n2C)c1C (stereo not drawn) | –
9 | 406 nM | 6550 nM | 24 nM | 719 nM | CCn1ncc(-c2nc3c(N[C@@H](C)C(=O)N4CCOCC4)ncnc3n2C)c1C | –
10 | 35 nM | 1590 nM | 0.9 nM | 13 nM | CCn1ncc(-c2nc3c(N[C@H]4CCN(C(=O)C5CC5)C4)ncnc3n2C)c1C | Vd [6]: 1.1 L/kg; IC50 [7]: 330 nM; fraction unbound [8]: 0.45; half-life [9]: 18 min; clearance [10]: 49 mL/min/kg; logD [11]: 1; fraction unbound [12]: 0.28; Vdu [13]: 4 L/kg; CL [14]: 410 mL/min/kg; IC50 [15]: 35 nM
11 | 274 nM | – | – | – | CC[C@H](Nc1ncnc2c1nc(-c1cnn(CC)c1C)n2C)C(=O)N1CCOCC1 | –
